Test results taken from patent US8178506B2, “Oligomeric compounds and compositions for use in modulation of small non-coding RNAs” (Regulus Therapeutics Inc., priority 2003, dated 2012).
In the oligonucleotide strings, read from the 5' end, every base follows the letter of its sugar. An asterisk marks phosphorothioate; unmarked linkages are phosphodiester. Other units and linkages are bracketed, terminal groups are in braces. A string of capitals states the bases alone. e = 2'-O-(2-methoxyethyl) (MOE); [5mC] = 5-methylcytosine; d = 2'-deoxy (DNA)

Columns and labels:
[1] = test system: mir-143 miRNA binding site; experiment: GFP mir-143 sensor reporter in T-REx-HeLa cells; assay type: cell-based, human; settings: for Mean fluorescence: T-REx-HeLa cells, 24 hours post-transfection
Excerpt: Reporter systems have been developed herein to assess the ability of miRNA mimics to provoke a gene silencing response and to assess whether antisense oligomeric compounds targeting miRNAs can inhibit gene silencing activity. The T-REx™-HeLa cell line (Invitrogen Corp., Carlsbad, Calif.) was used for either stable or transient transfections with plasmids constitutively expressing miRNAs, pre-miRNAs, pri-miRNAs or mimics thereof, and, in some cases, antisense oligomeric compounds targeting the expressed miRNA were also transfected into the cells. It is understood that other mammalian cells lines can also be used in this reporter system. T-REx™-HeLa cells were routinely cultured in DMEM, high glucose (Invitrogen Corporation, Carlsbad, Calif.), supplemented with 10% fetal bovine serum (Invitrogen Corporation). […] Cells were harvested when they reached 90% confluence, and on the day before transfection with expression or reporter plasmids (described in detail below), the T-REx™-HeLa cells were seeded onto 24-well plates at 50,000 cells/well. The following day, cells were transfected according to standard published procedures with various combinations of plasmids using 2 μg Lipofectamine™ 2000 Reagent (Invitrogen) per μg of plasmid DNA. When transfecting oligomeric compounds, 1-3 μg of Lipofectamine™ 2000 Reagent was used per 100 nM oligomeric compound.
Plasmids used are as follows: The pcDNA3.1©/NT-GFP (Invitrogen) plasmid, containing a CMV promoter controlling expression of a GFP reporter sequence at the N-terminus of the transcription start site was used as a control plasmid. The pcDNA3.1©/NT-GFP-mir-143 sensor plasmid contains (in addition to the elements above) three 22-nucleotide sites encoding the mir-143 miRNA binding site, downstream of the GFP coding sequence and upstream of the polyadenylation signal. The pCR3-pri-mir-143 plasmid (“pri-mir-143”) is a CMV promoter-driven constitutive expression plasmid which expresses the 110-nucleotide mir-143 pri-miRNA sequence (SEQ ID NO: 38), to act as a mir-143 pri-miRNA mimic. The pCR3-pri-mir control (“pri-mir-control”) is a CMV promotor-driven constitutive expression plasmid which is designed to express a similar 110-nucleotide pri-miRNA sequence ([…] CAGC; SEQ ID NO: 862) wherein the mature mir-143 sequence has been replaced with an unrelated sequence and the predicted complementary strand opposite it within the pri-miRNA structure is replaced with a nearly complementary sequence in order to preserve the stem loop as well as the bulge structure of the natural mir-143 pri-miRNA. Additionally, in order to test the effect of an oligomeric compound targeting a miRNA, the T-REx™-HeLa cells were also transfected with the uniform 2′-MOE phosphorothioate (PS) antisense oligomeric compound ISIS Number 327901 (SEQ ID NO: 319), targeted to mir-143 previously described.
Twenty-four hours post-transfection, cells were trypsinized and GFP fluorescence was analyzed by flow cytometry.

mir-15a miRNA = experiment: pGL3-mir-15a sensor luciferase assay in HeLa cells; assay type: cell-based, human; settings: pGL3-mir-15a sensor-expressing HeLa cells
Excerpt: In order to assess the ability of miRNAs to bind predicted miRNA binding sites and regulate the expression of the luciferase reporter, in some embodiments, expression systems based on the pGL3-Control (Promega Corp., Madison Wis.) reporter vector and comprising either a mir-15a, mir-21, or a mir-23b miRNA binding site were developed and used in transient transfections of HeLa cells to determine whether the endogenous mir-15a, mir-21, or mir-23b miRNAs, respectively, could repress luciferase reporter gene expression.
The pGL3-mir-15a sensor plasmid was created by cloning the sequence ([…]; SEQ ID NO: 369), complementary to the mir-15a miRNA, into the Xba site of the pGL3-Control plasmid, placing the potential miRNA-binding site in the 3′UTR of the luciferase reporter. This reporter plasmid was used to transfect HeLa cells and it was observed that the endogenous mir-15a miRNA was able to inhibit luciferase expression from the pGL3-mir-15a sensor plasmid. Thus, to further evaluate the ability of the mir-15a miRNA to bind this target site encoded by the pGL3-mir-15a sensor plasmid, and to assess the ability of oligomeric compounds to interfere with mir-15a-mediated silencing, pGL3-mir-15a sensor-expressing HeLa cells were treated with varying concentrations (3-, 10- or 30 nM) of the following oligomeric compounds: ISIS Number 327951 (SEQ ID NO: 369) is a uniform 2′-MOE compound targeting the mature mir-15a-1 miRNA. ISIS Numbers 356213 (SEQ ID NO: 878), 356215 (SEQ ID NO: 879), 356216 (SEQ ID NO: 880), 356218 (SEQ ID NO: 881), 356221 (SEQ ID NO: 882), 356227 (SEQ ID NO: 883) and 356229 (SEQ ID NO: 884) are phosphorothioate, uniform 2′-MOE oligomeric compounds designed and synthesized to target the entire length of the mir-15a pri-miRNA molecule (described in detail in Example 28, below). […] The data presented in Table 42 are the average of three trials and are presented as percent untreated control (luciferase plasmid only, not treated with oligomeric compound) luciferase expression, normalized to pRL-CMV levels.

T47D cells = experiment: Caspase-3 activity assay (apoptosis) in T47D cells; settings: T47D cells, 48 hours

Row | Substance | Relative luciferase activity (mir-15a miRNA; 3 nM) | Relative luciferase activity (mir-15a miRNA; 10 nM) | Relative luciferase activity (mir-15a miRNA; 30 nM) | also measured
1 | 327901 (antisense eT*eG*eA*eG*e[5mC]*eT*eA*e[5mC]*eA*eG*eT*eG*e[5mC]*eT*eT*e[5mC]*eA*eT*e[5mC]*eT*e[5mC]*eA) [compound 327901] | 83.6 | 96.6 | 88.2 | Mean fluorescence ([1]; oligo with GFP mir-143 sensor only): 4.2 arbitrary units; Mean fluorescence ([1]; oligo with pri-mir-143, no GFP plasmid): 3.7 arbitrary units; Mean fluorescence ([1]; oligo with pri-mir-143 and GFP mir-143 sensor): 4.1 arbitrary units
2 | 327951 (antisense e[5mC]*eA*e[5mC]*eA*eA*eA*e[5mC]*e[5mC]*eA*eT*eT*eA*eT*eG*eT*eG*e[5mC]*eT*eG*e[5mC]*eT*eA) [compound 327951] | 151.0 | 207.6 | 137.1 | 
3 | 328382 (e[5mC]*eA*eG*eA*e[5mC]*dT*d[5mC]*d[5mC]*d[5mC]*dA*dA*d[5mC]*dT*dG*dA*e[5mC]*e[5mC]*eA*eG*eA) [compound 328382] |  |  |  | Fold Increase over UTC (caspase-3 activity, apoptosis) (T47D cells; 200 nM oligomeric compound, experiment of Table 10): 0.9 fold
4 | 328691 (e[5mC]*e[5mC]*e[5mC]*e[5mC]*eA*dT*d[5mC]*dT*dT*dA*dG*d[5mC]*dA*dT*d[5mC]*eT*eA*eA*eG*eG) [compound 328691] |  |  |  | Fold Increase over UTC (caspase activity) (T47D cells; 200 nM, relative to untreated control): 0.9
5 | 342673 (antisense eA*eG*eA*e[5mC]*eT*eA*eG*e[5mC]*eG*eG*eT*eA*eT*e[5mC]*eT*eT*eT*eA*eT*e[5mC]*e[5mC]*e[5mC]) [compound 342673] | 104.5 | 82.6 | 85.7 | 
6 | TGAGCTACAGTGCTTCATCTCA [ISIS 327901] (chemistry not given here) [uniform 2′-MOE PS; targets mir-143] |  |  |  | recovery of GFP fluorescence ([1]; with 20 nM mir-143 dsRNA, 4-, 20- or 100 nM): blocked the inhibitory effect of the mir-143 dsRNA oligomeric compound
